Source: US9061984B2 (University of Louisville Research Foundation, Inc., priority 2008, dated 2015)
pIC50: −log10 of the molar value. Where two headings read alike, the source gives them in different places.

Experiments:
[1] = test system: several cell lines (Panel/Cell Line); assay: GI50, TGI and LC50 of compound II-21 for several cell lines (Table 12); conditions: 48-h exposure; for GI50 / CC50: Homo sapiens
[2] = test system: axenic amastigotes of L. amazonensis (strain MHOM/BR/76/LTB-012); assay: microbe, parasite or virus in culture; conditions: Leishmania amazonensis, read-out: L. amazonensis IC50

For C(=N/Nc1ncnc2sc3c(c12)CCCC3)/c1ccccn1 [II-21], the GI50 ([1]; NCI-H522, 48 h, Non-Small Cell Lung Cancer, NCI-H522) was 0.419 µM, the CC50 ([1]; NCI-H522, 48 h, read-out: LC50 (M), Non-Small Cell Lung Cancer, NCI-H522) was > 0.0001 M and the GI50 ([1]; NCI/ADR-RES, 48 h, Ovarian Cancer) was 0.427 µM. The CC50 ([1]; NCI/ADR-RES, 48 h, read-out: LC50 (M), Ovarian Cancer, NCI/ADR-RES) was > 0.0001 M, the GI50 ([1]; OVCAR-3, 48 h, Ovarian Cancer, OVCAR-3) was 0.109 µM and the CC50 ([1]; OVCAR-3, 48 h, read-out: LC50 (M), Ovarian Cancer, OVCAR-3) was 4.39e-05 M. For the same compound, the GI50 ([1]; OVCAR-4, 48 h, Ovarian Cancer, OVCAR-4) was 0.431 µM, the CC50 ([1]; OVCAR-4, 48 h, read-out: LC50 (M), Ovarian Cancer, OVCAR-4) was > 0.0001 M and the GI50 ([1]; OVCAR-5, 48 h, Ovarian Cancer, OVCAR-5) was 0.823 µM. For the same compound, the CC50 ([1]; OVCAR-5, 48 h, read-out: LC50 (M), Ovarian Cancer, OVCAR-5) was > 0.0001 M, the GI50 ([1]; OVCAR-8, 48 h, Ovarian Cancer, OVCAR-8) was 0.481 µM and the CC50 ([1]; OVCAR-8, 48 h, read-out: LC50 (M), Ovarian Cancer, OVCAR-8) was > 0.0001 M. The GI50 ([1]; RPMI-8226, 48 h, Leukemia, RPMI-8226) was 0.35 µM, the CC50 ([1]; RPMI-8226, 48 h, read-out: LC50 (M), Leukemia, RPMI-8226) was > 0.0001 M and the GI50 ([1]; RXF 393, 48 h, Renal Cancer, RXF 393) was 0.423 µM. It also gave a CC50 ([1]; RXF 393, 48 h, read-out: LC50 (M), Renal Cancer, RXF 393) of 4.53e-05 M, a GI50 ([1]; SF-268, 48 h, CNS Cancer, SF-268) of 0.356 µM and a CC50 ([1]; SF-268, 48 h, read-out: LC50 (M), CNS Cancer, SF-268) of 8.3e-05 M. For the same compound, the GI50 ([1]; SF-295, 48 h, CNS Cancer, SF-295) was 0.313 µM, the CC50 ([1]; SF-295, 48 h, read-out: LC50 (M), CNS Cancer, SF-295) was > 0.0001 M and the GI50 ([1]; SF-539, 48 h, CNS Cancer, SF-539) was 0.391 µM. For the same compound, the CC50 ([1]; SF-539, 48 h, read-out: LC50 (M), CNS Cancer, SF-539) was 2.92e-05 M, the GI50 ([1]; SK-MEL-2, 48 h, Melanoma, SK-MEL-2) was 7.51 µM and the CC50 ([1]; SK-MEL-2, 48 h, read-out: LC50 (M), Melanoma, SK-MEL-2) was 6.78e-05 M. It also gave a GI50 ([1]; SK-MEL-5, 48 h, Melanoma, SK-MEL-5) of 0.332 µM, a CC50 ([1]; SK-MEL-5, 48 h, read-out: LC50 (M), Melanoma, SK-MEL-5) of 2.36e-05 M and a GI50 ([1]; SK-MEL-28, 48 h, Melanoma, SK-MEL-28) of 0.422 µM. For the same compound, the CC50 ([1]; SK-MEL-28, 48 h, read-out: LC50 (M), Melanoma, SK-MEL-28) was 5.46e-05 M, the GI50 ([1]; SK-OV-3, 48 h, Ovarian Cancer, SK-OV-3) was 0.41 µM and the CC50 ([1]; SK-OV-3, 48 h, read-out: LC50 (M), Ovarian Cancer, SK-OV-3) was > 0.0001 M. It also gave a GI50 ([1]; SN12C, 48 h, Renal Cancer) of 0.426 µM, a CC50 ([1]; SN12C, 48 h, read-out: LC50 (M), Renal Cancer, SN12C) of 8.1e-05 M and a GI50 ([1]; SNB-19, 48 h, CNS Cancer, SNB-19) of 0.767 µM. The CC50 ([1]; SNB-19, 48 h, read-out: LC50 (M), CNS Cancer, SNB-19) was > 0.0001 M, the GI50 ([1]; SNB-75, 48 h, CNS Cancer, SNB-75) was 0.585 µM and the CC50 ([1]; SNB-75, 48 h, read-out: LC50 (M), CNS Cancer, SNB-75) was 4.93e-05 M. It also gave a GI50 ([1]; SW-620, 48 h, Colon Cancer, SW-620) of 0.561 µM, a CC50 ([1]; SW-620, 48 h, read-out: LC50 (M), Colon Cancer, SW-620) of 5.95e-05 M and a GI50 ([1]; T47D, 48 h, Breast Cancer, T-47D) of 0.0764 µM. The CC50 ([1]; T47D, 48 h, read-out: LC50 (M), Breast Cancer, T-47D) was > 0.0001 M, the GI50 ([1]; TK-10, 48 h, Renal Cancer, TK-10) was 0.486 µM and the CC50 ([1]; TK-10, 48 h, read-out: LC50 (M), Renal Cancer, TK-10) was > 0.0001 M. For the same compound, the GI50 ([1]; U-251, 48 h, CNS Cancer, U251) was 0.369 µM, the CC50 ([1]; U-251, 48 h, read-out: LC50 (M), CNS Cancer, U251) was 3.48e-05 M and the GI50 ([1]; UACC-62, 48 h, Melanoma, UACC-62) was 0.379 µM. The CC50 ([1]; UACC-62, 48 h, read-out: LC50 (M), Melanoma, UACC-62) was 4.84e-05 M, the GI50 ([1]; UACC-257, 48 h, Melanoma, UACC-257) was 0.355 µM and the CC50 ([1]; UACC-257, 48 h, read-out: LC50 (M), Melanoma, UACC-257) was 4.17e-05 M. For the same compound, the GI50 ([1]; UO-31, 48 h, Renal Cancer, UO-31) was 0.286 µM, the CC50 ([1]; UO-31, 48 h, read-out: LC50 (M), Renal Cancer, UO-31) was 6.3e-05 M and the “TGI” value ([1]; Leukemia, CCRF-CEM) was 0.769 µM. For the same compound, the “TGI” value ([1]; Leukemia, HL-60(TB)) was 0.407 µM, the “TGI” value ([1]; Leukemia, K-562) was 10.8 µM and the “TGI” value ([1]; Leukemia, MOLT-4) was 0.774 µM. The “TGI” value ([1]; Leukemia, RPMI-8226) was 12.5 µM, the “TGI” value ([1]; Leukemia, SR) was 0.953 µM and the “TGI” value ([1]; Melanoma, M14) was 0.599 µM. For the same compound, the “TGI” value ([1]; Melanoma, MALME-3M) was 10.3 µM, the “TGI” value ([1]; Melanoma, MDA-MB-435) was 25.1 µM and the “TGI” value ([1]; Melanoma, SK-MEL-2) was 25.5 µM. For the same compound, the “TGI” value ([1]; Melanoma, SK-MEL-5) was 1.72 µM, the “TGI” value ([1]; Melanoma, SK-MEL-28) was 16.7 µM and the “TGI” value ([1]; Melanoma, UACC-62) was 6.54 µM. The “TGI” value ([1]; Non-Small Cell Lung Cancer, A549/ATCC) was 14.9 µM, the “TGI” value ([1]; Non-Small Cell Lung Cancer, EKVX) was 20.5 µM and the “TGI” value ([1]; Non-Small Cell Lung Cancer, HOP-62) was 17.7 µM. For the same compound, the “TGI” value ([1]; Non-Small Cell Lung Cancer, HOP-92) was 31 µM, the “TGI” value ([1]; Non-Small Cell Lung Cancer, NCI-H23) was 34.3 µM and the “TGI” value ([1]; Non-Small Cell Lung Cancer, NCI-H226) was 16.2 µM. For the same compound, the “TGI” value ([1]; Non-Small Cell Lung Cancer, NCI-H322M) was 35 µM, the “TGI” value ([1]; Non-Small Cell Lung Cancer, NCI-H460) was 1.73 µM and the “TGI” value ([1]; Non-Small Cell Lung Cancer, NCI-H522) was 23.2 µM. The “TGI” value ([1]; Ovarian Cancer, IGROV1) was 28.9 µM, the “TGI” value ([1]; Ovarian Cancer, NCI/ADR-RES) was 58.1 µM and the “TGI” value ([1]; Ovarian Cancer, OVCAR-3) was 14.5 µM. The “TGI” value ([1]; Ovarian Cancer, OVCAR-4) was 26.3 µM, the “TGI” value ([1]; Ovarian Cancer, OVCAR-5) was 31.4 µM and the “TGI” value ([1]; Ovarian Cancer, OVCAR-8) was >100 µM. The “TGI” value ([1]; Ovarian Cancer, SK-OV-3) was 29.2 µM, the “TGI” value ([1]; Prostate Cancer, DU-145) was 15.1 µM and the “TGI” value ([1]; Prostate Cancer, PC-3) was 71.1 µM. For the same compound, the “TGI” value ([1]; Renal Cancer, 786-0) was 0.947 µM, the “TGI” value ([1]; Renal Cancer, A498) was 8.81 µM and the “TGI” value ([1]; Renal Cancer, ACHN) was 11 µM. For the same compound, the “TGI” value ([1]; Renal Cancer, CAKI-1) was 14.8 µM, the “TGI” value ([1]; Renal Cancer, RXF 393) was 10.6 µM and the “TGI” value ([1]; Renal Cancer, SN12C) was 15.3 µM. For the same compound, the “TGI” value ([1]; Renal Cancer, TK-10) was 56.6 µM, the “TGI” value ([1]; Renal Cancer, UO-31) was 1.65 µM and the pIC50 [2] was 6.70.
